Test results published in patent US5405847A, “4,5-dihydro-4-oxo-pyrrolo[1,2-a]quinoxalinones and corresponding aza analogs and a process for their preparation” (Asta Medica Aktiengesellschaft, priority 1992, dated 1995).

Legend:
monocytes = assay: Lipopolysaccharide-induced interleucin-1 production of monocytes (man); assay type: cell-based; conditions: Homo sapiens, Monocyte
Protocol: (§1) The acute toxicity of the compounds of the invention in the mouse (expressed by the LD 50 mg/kg; method after Miller and Tainter: Proc. Soc. Exper. Biol. a. Med. 57 (1944) 261) is for example above 1000 mg/kg in oral application. More detailed information on the previously mentioned test models. The figures cited relate to the compounds of the invention, in particular the compounds according to Example I.
2. Lipopolysaccharide-induced interleucin-1 production of monocytes (man)

alveolar macrophages = assay: Platelet-activating factor (Paf)-induced oxygen radical release from alveolar macrophages (guinea pig); assay type: cell-based; conditions: Cavia porcellus, Macrophage
Protocol: as §1
3. Platelet-activating factor (Paf)-induced oxygen radical release from alveolar macrophages (guinea pig)

mast cells = assay: Allergically-induced histamine release from mast cells (rat); assay type: cell-based; conditions: Mast cell
Protocol: as §1
1. Allergically-induced histamine release from mast cells (rat)

5-Lipoxygenase = target: T1, 5-Lipoxygenase (Rattus norvegicus, UniProt P12527); assay: 5-Lipoxygenase inhibition in peritoneal macrophages (rat); assay type: cell-based
T1 construct: endogenous in cells; host or cells: rat peritoneal macrophages
T1 sequence (P12527 1-673): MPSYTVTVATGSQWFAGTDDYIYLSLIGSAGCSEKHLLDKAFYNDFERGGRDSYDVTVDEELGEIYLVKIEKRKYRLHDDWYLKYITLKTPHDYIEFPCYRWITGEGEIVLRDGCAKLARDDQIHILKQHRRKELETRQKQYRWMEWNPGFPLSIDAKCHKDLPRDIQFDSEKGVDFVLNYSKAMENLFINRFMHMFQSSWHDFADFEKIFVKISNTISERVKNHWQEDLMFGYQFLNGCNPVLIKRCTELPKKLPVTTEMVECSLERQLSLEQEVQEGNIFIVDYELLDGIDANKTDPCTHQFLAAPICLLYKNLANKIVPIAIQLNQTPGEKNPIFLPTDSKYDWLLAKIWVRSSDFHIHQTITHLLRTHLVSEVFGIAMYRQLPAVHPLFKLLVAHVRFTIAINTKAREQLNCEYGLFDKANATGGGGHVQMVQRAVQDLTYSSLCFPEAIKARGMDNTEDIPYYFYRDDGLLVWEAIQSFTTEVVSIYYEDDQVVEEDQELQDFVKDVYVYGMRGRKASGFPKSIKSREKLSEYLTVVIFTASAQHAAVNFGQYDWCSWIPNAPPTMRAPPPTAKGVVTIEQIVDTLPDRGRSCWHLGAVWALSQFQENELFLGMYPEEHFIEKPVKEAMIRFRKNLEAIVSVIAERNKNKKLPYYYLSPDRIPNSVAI
Protocol: as §1
4. 5-Lipoxygenase inhibition in peritoneal macrophages (rat)

[1] = test system: Allergic bronchoconstriction; assay: Allergic bronchoconstriction according to Konzett-Rossler (rat); assay type: in vivo; conditions: iv
Protocol: as §1
3. Allergic bronchoconstriction according to Konzett-Rossler (rat)
Lit.: Naunyn-Schmiedeb. Arch. Exp. Pathol. Pharmakol. 195, 1940, p. 71-74

[2] = test system: Ovalbumin-induced asthmatic late phase eosinophilia in the lung; assay: Ovalbumin-induced asthmatic late phase eosinophilia in the lung (guinea pigs); assay type: in vivo
Protocol: as §1
1. Ovalbumin-induced asthmatic late phase eosinophilia in the lung (guinea pigs)

phosphordiesterase = phosphordiesterase inhibition; assay type: biochemical
Excerpt: Examples for the compounds of Formula I

[3] = test system: Asthma-induced by domestic dust mites; assay: Asthma induced by domestic dust mites (rabbits); assay type: in vivo; conditions: 10 mg/ml as aerosol for 2 minutes
Protocol: as §1
2. Asthma-induced by domestic dust mites (rabbits)
Lit.: J. Allergy Clin. Immunol. 87, 1991, p. 312 Administration/dosage: 10 mg/ml as aerosol for 2 minutes

Work on `O=c1[nH]c2ccc(O)nc2n2cccc12` [Example I, 4,5-Dihydro-8-hydroxy-4-oxo-pyrido[3,2-e]pyrrolo[1,2-a]pyrazine] yielded an IC50 (monocytes) of 4.5 µM, an IC50 (alveolar macrophages) of 6.1 µM and an IC50 (mast cells) of 700 nM. The IC50 (5-Lipoxygenase) was 12 µM, the ED50 [1] was 0.5 mg/kg and the “inhibition of asthmatic late phase eosinophilia in the lung” value ([2]; 5 mg/kg/i.p.) was 67%. For the same compound, the “inhibition of asthmatic late phase eosinophilia in the lung” value ([2]; 10 mg/kg/i.p.) was 98%, the IC50 (phosphordiesterase) was 32.2 µM and the “Asthmatic late phase: inhibition” value [3] was 51%. The “Bronchial hyperreactivity: inhibition” value [3] was 51% and the “Bronchoconstriction: inhibition” value [3] was 49%.

`CN(C(=O)CCCCOc1ccc2[nH]c(=O)c3cccn3c2n1)C1CCCCC1` [D 20169] gave an IC50 (phosphordiesterase) of 7.34 µM.

For `CNC(=O)CCCOc1ccc2[nH]c(=O)c3cccn3c2n1` [Example 98], the IC50 (phosphordiesterase) was 15.1 µM.
